Test results from paper PMC12147445, “Dual-Active Nanoimmunomodulators for the Synergistic Enhancement of the Antitumor Efficacy of Photodynamic Immunotherapy” (Biomaterials Research, 2025).

Key:
CT26 cells [1] = assay: Cytotoxicity test by the MTT method; format: cell-based, mouse; conditions: for cytotoxicity (MTT), dark: CT26, no light, highest PIX 6 μg/ml and MAC 6.72 μg/ml, 6 h + 24 h
Experimental: CT26 cells were seeded into 96-well plates, and materials with different concentration gradients were prepared. Different materials were added into 96-well plates at 100 μl per well according to the concentration gradient, respectively. The highest concentration of PIX in CPP was 6 μg/ml. The highest concentrations of PIX and MAC in CPPM were 6 and 6.72 μg/ml, respectively. After 6 h of incubation, the CPP light group and CPPM light group were irradiated using infrared light for 3 min, and after 24 h, 20 μl of MTT reagent was added, and the absorbance was detected by an enzyme meter (570 nm) and the cell viability was calculated.

[2] = In vitro 1O2 assay (Singlet Oxygen Sensor Green); format: physicochemical; conditions: PBS, SOSG probe, 630-nm laser, measured every 15 s
Experimental: To further explore the ROS-producing behavior of CPPM, MAC, CPP, and CPPM were prepared into 1-ml solutions with phosphate-buffered saline, and 10 μl of reactive oxygen Singlet Oxygen Sensor Green probe was added to each set of solutions. The resulting fluorescence intensity was measured as F0 in an F-302 model fluorescence spectrophotometer (excitation wavelength of 488.0 nm, wavelength range of 500.0 to 550.0 nm), and the fluorescence intensity was measured as Ft under 630-nm laser irradiation every 15 s. The concentration of PIX in CPP was 3 μg/l. The concentrations of PIX and MAC in CPPM were 3 and 3.3 μg/l, respectively.

CT26 cells [3] = assay: Intracellular ROS detection (DCFH-DA probe); format: cell-based, mouse; conditions: CT26, 6 h incubation
Experimental: The CT26 cells were incubated for 6 h with the addition of MAC, CPP, and CPPM materials, respectively, after wall culture. Subsequently, a 2,7-dichlorodihydrofluorescein diacetate probe was added to stain the cells for 30 min, and the CPP light group and CPPM light group were illuminated for 3 min, and the cells were observed and analyzed by microscopy. The experimental groupings were (the same groupings as below): blank group (blank), MAC group (MAC), CPP group (CPP), CPP light exposure group (CPP+), CPPM group (CPPM), and CPPM light exposure group (CPPM+). The concentration of PIX in CPP was 6 μg/l. The concentrations of PIX and MAC in CPPM were 6 and 6.72 μg/l, respectively.

CT26 cells [4] = assay: Flow cytometric apoptosis assay; format: cell-based, mouse; conditions: flow cytometry annexin V-FITC/PI, 6 h incubation; for apoptosis of CT26 cells, dark: no light
Experimental: After the CT26 cells were cultured on the wall, MAC, CPP, and CPPM were added and incubated for 6 h, and the light group was light-exposed for 5 min, respectively. After the cells were washed, 1× annexin V–FITC (195 μl), annexin V–FITC (5 μl), and PI staining solution (10 μl) were added, respectively, and the reaction was detected by flow cytometry after 10 to 15 min. The concentrations of PIX and MAC in CPPM were […] and 3.3 μg/l, respectively.

CT26 lung metastasis = assay: In vivo antitumor metastasis study (lung metastasis model); set-up: species or system BALB/c female mice; conditions: 10 d of treatment, n = 3
Experimental: The mouse lung metastasis model was established by inoculating CT26 cells on the back of BALB/c female mice and injecting 2 × 10^6 CT26 cells labeled using green fluorescent protein through the tail vein when the tumor volume of the loaded mice reached 100 mm^3 (Fig. S2C). The groups were treated in the same manner as those in the immune response study. The mice were executed after 10 d of treatment, and the lung tissues of the mice were excised and photographed, and the metastatic lung nodules were quantified and H&E-stained for further examination of the extent of lung metastasis.

CT26 cells [5] = assay: ICD immunofluorescence assay (CRT, HMGB1); format: cell-based, mouse; conditions: CT26, PIX 6 μg/ml, MAC 6.72 μg/ml, 630 nm 29.8 mW cm^-2 10 min
Experimental: MAC, CPP, and CPPM were added to CT26 cells, and the light group was incubated for 6 h and then irradiated with light-emitting diode light (630 nm, 29.8 mW cm^−2) for 10 min. After continuing incubation for 4 h, paraformaldehyde (4%) and 0.1% Triton X-100 were added for fixation and permeabilization of cells, respectively. Subsequently, the cells were incubated with CRT or HMGB1 fluorescent primary antibody overnight ([…]), secondary antibody for 1 h, and DAPI for 20 min and then observed by microscopy. The PIX concentration was 6 μg/ml, and the MAC concentration was 6.72 μg/ml.

[6] = Drug content / loading efficiency (PIX by UV-Vis, MAC by HPLC); format: physicochemical; conditions: UV-Vis at 630 nm, sample diluted to 1 mg/ml
Experimental: CPP and CPPM were diluted to 1 mg/ml each. MAC was quantified by HPLC with a mobile phase A of water (0.2% TFA), a mobile phase B of acetonitrile, a flow rate of 1 ml/min, and a gradient elution of 10% to 100% B. The peak area of different concentrations of MAC was tested at 277 nm out, and the standard curve was plotted and the drug concentration was tested. PIX was quantified by ultraviolet–visible absorption spectrometry (UV–Vis), and the absorption values of different concentrations of PIX were determined at 630 nm, and the standard curve was plotted and the concentration of PIX was tested. Subsequently, the drug release profiles were determined by HPLC in release media at potential of hydrogen (pH) 5.3 and 7.4.

CT26 subcutaneous tumor = assay: Tumor growth inhibition, CT26 subcutaneous tumor model; format: in vivo, BALB/c female mice; conditions: for antitumor effect (tumor size, volume, weight), no light: MAC 2.0 mg/kg, PIX 1.8 mg/kg, tail vein every 2 d x5, n = 5
Experimental: (§1) CT26 cells were inoculated on the back of BALB/c female mice to construct a subcutaneous tumor model (Fig. S2A). The groups were treated as follows (the same groupings as below): MAC (2.0 mg/kg), CPP (PIX content of 1.8 mg/kg), and CPPM (PIX and MAC contents of 1.8 and 2.0 mg/kg, respectively) were injected separately through the tail vein, and the light group was irradiated using a laser for 6 h after drug administration for 10 min (intensity of 50% and power of 0.68 W). The mice were treated every 2 d for a total of 5 treatments, and tumor volume and body weight were measured every other day. On day 18, the mice were executed by cervical dislocation, and their blood was removed and dissected. The spleens of the mice were weighed, and the mouse tumor tissues were stained for Ki67, terminal deoxynucleotidyl transferase dUTP nick end labeling (TUNEL), and CD3/CD8. Different concentrations of CPPM solutions were prepared with saline; 100 μl of CPPM solution was added into 2 ml of mouse blood and mixed well and incubated in a 37 °C water bath for 1 h. After centrifugation, 100 μl of the supernatant was taken into a 96-well plate, and the absorbance value was measured by an enzyme-labeling instrument at a wavelength of 540 nm and the hemolysis rate was calculated. In addition, blood biochemistry and blood routine indexes were analyzed, and hematoxylin–eosin (H&E) staining was performed on tumor tissues and major organs.

[7] = Blood routine examination; format: in vivo, BALB/c female mice; conditions: CT26 tumor mice, i.v. every 2 d x5, day 18, no light, mean ± SD
Experimental: as §1

C (PEG5000-Mal)-VRARTR-PIX [CPP, PEG5000-Mal assembled with CP; CPP+ is the light exposure group]
cytotoxicity (MTT), light (CT26 cells [1]; CT26, 6 h incubation then light 3 min, 24 h, highest PIX 6 μg/ml): stronger cytotoxicity
cytotoxicity (MTT), dark (CT26 cells [1]): no significant toxic effects
1O2 generation [2]: could produce ^1O2 under light conditions
intracellular ROS, light (CT26 cells [3]; light 3 min): showed green fluorescence
intracellular ROS, dark (CT26 cells [3]; no light): did not produce ROS
apoptosis of CT26 cells, light (CT26 cells [4]; light 5 min): significantly higher
apoptosis of CT26 cells, dark (CT26 cells [4]): lower apoptosis rates
lung metastasis, light (CT26 lung metastasis; laser): a few lung metastases were visible
lung metastasis, no light (CT26 lung metastasis): lung metastasis obviously occurred
CRT expression on the cell membrane under PDT (CT26 cells [5]): increase the expression of CRT on the cell membrane
HMGB1 in tumor cells under PDT (CT26 cells [5]): significantly attenuated
loading efficiency of PIX [6]: 12.09%
antitumor effect (tumor size, volume, weight), no light (CT26 subcutaneous tumor): low antitumor properties
antitumor effect (tumor size, volume, weight), light (CT26 subcutaneous tumor; PIX 1.8 mg/kg (MAC 2.0 mg/kg), tail vein every 2 d x5, laser 10 min 6 h after dosing, n = 5): able to inhibit tumor growth

CCCNS(=O)(=O)Nc1ncnc(OCCOc2ncc(Br)cn2)c1-c1ccc(Br)cc1 [MAC, Macitentan, reference compound]
PCT [7]: 0.21 ± 0.06%
PDW [7]: 17.89 ± 0.54
Mon ([7]; reference 0.00–0.30): 5.54 ± 1.77 10^9/l
Gran ([7]; reference 0.10–1.80): 116.23 ± 32.29 10^9/l
Lymph ([7]; reference 0.70–5.70): 24.74 ± 5.26 10^9/l
WBC ([7]; reference 0.80–6.80): 132.48 ± 37.09 10^9/l
RBC ([7]; reference 6.36–9.42): 7.82 ± 0.54 10^12/l
RDW ([7]; reference 13.00–17.00): 14.91 ± 0.48%
MCH ([7]; reference 15.80–19.00): 16.61 ± 1.12 pg
HCT ([7]; reference 34.60–44.60): 37.4 ± 2.73%
HCV ([7]; reference 48.20–58.30): 52.75 ± 2.51 fL
HGB ([7]; reference 110.00–143.00): 115.11 ± 15.08 g/L
MCHC ([7]; reference 302.00–353.00): 318.78 ± 20.68 g/L
cytotoxicity (MTT), dark (CT26 cells [1]): no significant toxic effects
apoptosis of CT26 cells, dark (CT26 cells [4]): lower apoptosis rates
lung metastasis, no light (CT26 lung metastasis): lung metastasis obviously occurred
antitumor effect (tumor size, volume, weight), no light (CT26 subcutaneous tumor): low antitumor properties
